Measured values as given in patent US20140187505A1, “Cardiac Glycosides to Treat Cystic Fibrosis and Other IL-8 Dependent Disorders” (priority 2002, published 2014).
Like-named read-outs stand apart in the source and are kept apart here.

Tests used:
[1] = mobile phase: methanol/water 30:70; cited from earlier work
[2] = eluent acetonitrile/water 45:55; cited from earlier work
[3] = test system: guinea-pig heart Na^+-K^+-ATPase; settings: cited from earlier work
[4] = octanol/water (20 mM TRIS-HCl, pH 7.4), cited from earlier work
[5] = test system: IL-8 secretion from cystic fibrosis lung epithelial IB3-1 cells

Compound | RM values (lipophilicity, reversed-phase thin layer chromatography) [1] | K retentions for reversed-phase high pressure liquid chromatography [2] | ID50 [3] | P (partition coefficient in octanol/water system) [4] | Activity on IL-8 secretion ([5]; at a concentration of 1000 nM (1 micromolar)) | IC50 ([5]; read-out: IC50 nmol/L in cells, 50% suppression of spontaneous IL-8 secretion, IB3-1 cells, 48 hours) [nmol/L] | R values for reversed-phase thin layer chromatography [1] | P (partition coefficient in octanol/water system) ([4]; listed as B-methyl digitoxin)
12-Acetyl-β-methyldigoxin | 1.26 | 4.04 | 25.55 ± 1.70 ×10^−4 mol l^−1 | 746.0 ± 71.3 |  |  |  | 
CC(=O)O[C@H]1CC[C@@]2(C)[C@H](CC[C@@H]3[C@@H]2C[C@@H](OC(C)=O)[C@]2(C)[C@@H](C4=CC(=O)OC4)CC[C@]32O)C1 (single isomer, unassigned; diac) [digoxigenin3,12 diAC, digoxigenin 3,12 diAC] |  |  |  |  | entirely inactive | > 1000 |  | 
CC(=O)O[C@@H]1C[C@H]2[C@@H](CC[C@@H]3C[C@@H](O[C@H]4C[C@H](O)[C@H](O[C@H]5C[C@H](O)[C@H](O[C@H]6C[C@H](O)[C@H](O)[C@@H](C)O6)[C@@H](C)O5)[C@@H](C)O4)CC[C@@]32C)[C@@]2(O)CC[C@H](C3=CC(=O)OC3)[C@@]12C [12-Acetyldigoxin] | 0.89 | 1.60 | 20.90 ± 0.98 ×10^−4 mol l^−1 | 195.0 ± 17.5 |  |  |  | 
CC(=O)O[C@H]1C[C@]2(O)[C@@H]3CC[C@@H]4C[C@@H](O[C@H]5C[C@H](O)[C@H](O[C@H]6C[C@H](O)[C@H](O[C@H]7C[C@H](O)[C@H](O)[C@@H](C)O7)[C@@H](C)O6)[C@@H](C)O5)CC[C@]4(C)[C@H]3CC[C@]2(C)[C@H]1C1=CC(=O)OC1 [16-Acetylgitoxin] | 0.89 | 2.27 | 0.85 ± 0.01 ×10^−4 mol l^−1 | 144.0 ± 32.8 |  |  |  | 
C[C@H]1O[C@@H](O[C@H]2[C@@H](O)C[C@H](O[C@H]3[C@@H](O)C[C@H](O[C@H]4CC[C@@]5(C)[C@H](CC[C@@H]6[C@@H]5CC[C@]5(C)[C@@H](C7=CC(=O)OC7)[C@@H](OC=O)C[C@]65O)C4)O[C@@H]3C)O[C@@H]2C)C[C@H](O)[C@@H]1O [16-Formylgitoxin] | 0.84 | 1.82 | 0.78 ± 0.01 ×10^−4 mol l^−1 | 110.9 ± 6.2 |  |  |  | 
C[C@H]1O[C@@H](O[C@H]2[C@@H](O)C[C@H](O[C@H]3[C@@H](O)C[C@H](O[C@H]4CC[C@@]5(C)[C@H](CC[C@@H]6[C@@H]5CC[C@]5(C)[C@H](C7COC(=O)C7)CC[C@]65O)C4)O[C@@H]3C)O[C@@H]2C)C[C@H](O)[C@@H]1O (stereo partly drawn) [Dihydro-digitoxin] | 1.42 | 3.40 | 32.40 ± 2.85 ×10^−4 mol l^−1 | 800.0 ± 112.0 |  |  |  | 
C[C@@H]1O[C@@H](O[C@H]2C[C@@H](O)[C@]3(CO)[C@H]4[C@H](O)C[C@]5(C)[C@@H]([C@@H]6COC(=O)C6)CC[C@]5(O)[C@@H]4CC[C@]3(O)C2)[C@H](O)[C@H](O)[C@H]1O [Dihydro-ouabain] | −0.71 | 0.15 | 45.50 ± 3.90 ×10^−4 mol l^−1 | 0.20 ± 0.00 |  |  |  | 
C[C@H]1O[C@@H](O[C@H]2CC[C@@]3(C)[C@H](CC[C@@H]4[C@@H]3CC[C@]3(C)[C@@H](C5=CC(=O)OC5)[C@@H](O)C[C@]43O)C2)C[C@H](O)[C@@H]1O [Gitoxigenin-mono-digitoxoside] | 0.46 | 0.83 | 2.56 ± 0.21 ×10^−4 mol l^−1 | 60.1 ± 10.0 |  |  |  | 
C[C@]12CC[C@H](O)C[C@H]1CC[C@@H]1[C@@H]2CC[C@]2(C)[C@@H](C3=CC(=O)OC3)[C@@H](O)C[C@]12O [Gitoxigenin] | 0.38 | 0.67 | 21.37 ± 0.97 ×10^−4 mol l^−1 | 44.1 ± 1.8 |  |  |  | 
C[C@H]1O[C@@H](O[C@H]2[C@@H](O)C[C@H](O[C@H]3[C@@H](O)C[C@H](O[C@H]4CC[C@@]5(C)[C@H](CC[C@@H]6[C@@H]5CC[C@]5(C)[C@@H](C7=CC(=O)OC7)[C@@H](O)C[C@]65O)C4)O[C@@H]3C)O[C@@H]2C)C[C@H](O)[C@@H]1O [Gitoxin] | 0.68 | 1.28 | 2.55 ± 0.14 ×10^−4 mol l^−1 | 48.0 ± 11.2 |  |  |  | 
CC(=O)O[C@H]1[C@@H](OC(C)=O)C[C@H](O[C@H]2[C@@H](OC(C)=O)C[C@H](O[C@H]3[C@@H](OC(C)=O)C[C@H](O[C@H]4CC[C@@]5(C)[C@H](CC[C@@H]6[C@@H]5CC[C@]5(C)[C@@H](C7=CC(=O)OC7)[C@@H](OC(C)=O)C[C@]65O)C4)O[C@@H]3C)O[C@@H]2C)O[C@@H]1C [Pentaacetylgitoxin] | 1.86 | 49.45 | 112.00 ± 10.70 ×10^−4 mol l^−1 | 2890.0 ± 668.0 |  |  |  | 
C[C@H]1O[C@@H](O[C@H]2[C@@H](OC=O)C[C@H](O[C@H]3[C@@H](OC=O)C[C@H](O[C@H]4CC[C@@]5(C)[C@H](CC[C@@H]6[C@@H]5CC[C@]5(C)[C@@H](C7=CC(=O)OC7)[C@@H](OC=O)C[C@]65O)C4)O[C@@H]3C)O[C@@H]2C)C[C@H](OC=O)[C@@H]1OC=O [Pentaformylgitoxin] | 1.85 | 8.99 | 0.23 ± 0.00 ×10^−4 mol l^−1 | 1440.0 ± 118.3 |  |  |  | 
C[C@]12CC[C@H]3[C@@H](CC[C@]4(O)C[C@@H](O)CC[C@]34C=O)[C@@]1(O)CC[C@@H]2C1=CC(=O)OC1 [k-Strophanthidin] |  | 0.42 | 17.80 ± 0.81 ×10^−4 mol l^−1 | 3.60 ± 0.5 |  |  | −0.14 | 
CO[C@H]1C[C@H](O[C@H]2CC[C@]3(C=O)[C@H]4CC[C@]5(C)[C@@H](C6=CC(=O)OC6)CC[C@]5(O)[C@@H]4CC[C@]3(O)C2)O[C@H](C)[C@H]1O [k-Strophanthin-α] | −0.09 | 0.79 | 1.29 ± 0.14 ×10^−4 mol l^−1 | 4.40 ± 0.3 |  |  |  | 
CO[C@H]1C[C@H](O[C@H]2CC[C@]3(C=O)[C@H]4CC[C@]5(C)[C@@H](C6=CC(=O)OC6)CC[C@]5(O)[C@@H]4CC[C@]3(O)C2)O[C@H](C)[C@H]1O[C@@H]1O[C@H](CO)[C@@H](O)[C@H](O)[C@H]1O [k-Strophanthin-β] | −0.50 | 0.22 | 2.51 ± 0.12 ×10^−4 mol l^−1 | 0.11 ± 0.01 |  |  |  | 
CO[C@H]1C[C@H](O[C@H]2CC[C@]3(C=O)[C@H]4CC[C@]5(C)[C@@H](C6=CC(=O)OC6)CC[C@]5(O)[C@@H]4CC[C@]3(O)C2)O[C@H](C)[C@H]1O[C@@H]1O[C@H](CO[C@@H]2O[C@H](CO)[C@@H](O)[C@H](O)[C@H]2O)[C@@H](O)[C@H](O)[C@H]1O [k-Strophanthin-γ] | −0.62 | 0.21 | 2.47 ± 0.25 ×10^−4 mol l^−1 | 0.15 ± 0.07 |  |  |  | 
COC1C(O)CC(OC2C(O)CC(OC3C(O)CC(OC4CCC5(C)C(CCC6C5CCC5(C)C(C7=CC(=O)OC7)CCC65O)C4)OC3C)OC2C)OC1C (stereo not drawn) [β-Methyldigitoxin] | 1.71 | 8.28 | 0.40 ± 0.03 ×10^−4 mol l^−1 | 1300.0 ± 227.0 |  |  |  | 1300
CO[C@H]1[C@@H](O)C[C@H](O[C@H]2[C@@H](O)C[C@H](O[C@H]3[C@@H](O)C[C@H](O[C@H]4CC[C@@]5(C)[C@H](CC[C@@H]6[C@@H]5C[C@@H](O)[C@]5(C)[C@@H](C7=CC(=O)OC7)CC[C@]65O)C4)O[C@@H]3C)O[C@@H]2C)O[C@@H]1C [β-Methyldigoxin] |  | 1.19 | 1.55 ± 0.06 ×10^−4 mol l^−1 | 63.3 ± 20.9 |  |  |  | 
Dihydro-digoxin | 0.24 | 0.51 | 40.90 ± 3.35 ×10^−4 mol l^−1 |  |  |  |  | 
α,β-Diacetyldigoxin | 1.16 | 4.31 | 1.27 ± 0.02 ×10^−4 mol l^−1 | 392.0 ± 82.0 |  |  |  | 
α,β-Dimethyldigoxin | 0.94 | 2.76 | 1.28 ± 0.06 ×10^−4 mol l^−1 | 138.0 ± 12.1 |  |  |  | 
α-Acetyldigoxin | 0.50 | 0.99 | 2.50 ± 0.31 ×10^−4 mol l^−1 | 54.6 ± 7.8 |  |  |  | 
α-Methyldigoxin | 0.54 | 1.13 | 2.23 ± 0.11 ×10^−4 mol l^−1 | 56.6 ± 9.8 |  |  |  | 
β-Acetyldigoxin | 0.70 | 1.25 | 1.60 ± 0.02 ×10^−4 mol l^−1 | 99.2 ± 4.1 |  |  |  | 
